Values quoted from earlier work in US20210220347A1 (priority 2015, published 2021).

Conditions: in vivo

## CN1CC[C@]23c4c5ccc(O)c4O[C@H]2[C@@H](O)C=C[C@H]3[C@H]1C5 [morphine]
  Respiratory depression dose response: linear and dose proportional
